What all share (format): cell-based, human
One data set relates to HeLa COX-1 Tet-Off cells. As to the kind of experiment: PGE2 secretion into culture medium (ELISA) after COX-1 induction. Particulars: 5 μg/ml arachidonic acid. From the text: The Tet-Off expression system we used was developed by Gossen and co-workers (38) to deliver doxycycline-regulated expression based on the high specificity of the Escherichia coli tet repressor-operator-doxycycline interaction. In the Tet-Off expression system each clonal cell line is used as its own control (cells cultured in the presence of DOX) and the overexpression of the integrated target gene is modulated solely by removing DOX from the culture medium. This eliminates the need for a control clonal cell line transfected with vector alone (as used with constitutive stable expression systems) thereby overcoming the inherent variation that arises from different sites of integration of DNA between different clones. HeLa Tet-Off cells containing the pTet-Off vector stably transfected and constitutively expressing the tetracycline-controlled transactivator tTA (composed of a fusion of the TetR and VP16 activation domain) were purchased from Clontech. The pBS(SK−)/PSHI cDNA containing the full length COX-1 gene (kindly supplied by Dr Stephen Prescott, University of Utah, Salt Lake City, Utah) was used as the template plasmid. The response plasmid pTRE2 (containing the minimal cytomegalovirus promoter containing Tet-operator sequences cloned upstream of the cDNA to be expressed) and the plasmid for antibiotic selection (pTK-hygromycin) for use with the Tet-Off system were purchased from Clontech. The COX-1 gene was excised from the template plasmid and ligated at the Bam H1 site of the pTRE2 vector. The orientation of the insert was verified by dideoxy DNA sequencing using the sequence specific primers: 5′-[…]-3′ (SEQ ID No 8) and 5′-[…]-3′ (SEQ ID No 9) (Clontech). Cells were plated in 12 well dishes in complete medium containing 10 μg/ml G418 per well and were allowed to attach and grow overnight. The pTRE2 vector containing the COX-1 gene (2 μg) was co-transfected with pTK-hygromycin (0.1 μg, which contains the hygromycin gene under control of the minimal thymidine kinase (TK) promoter) into the HeLa Tet-Off cell line at about 80% confluency using pfx-5 (Invitrogen, De Schelp, Netherlands) diluted in Optimem (Gibco). Cells were incubated for 4 hrs at 37° C. in 5% humidified CO2. Thereafter the medium was replaced with fresh complete medium containing no G418. Cells were allowed to grow for 72 hrs. Transfected cells were then seeded together with wild-type cells. Clones were selected against 200 μg/ml hygromycin in the presence of 1 μg/ml DOX. At least 50 hygromycin-resistant clones were picked using cloning cylinders. Clones were allowed to grow under continuous selection with hygromycin in the presence of DOX and then screened for the ability to express COX-1 in the presence and absence of DOX by immunoblot analysis. […]

Data set [1] deals with COX-1, COX-2 and PGES expression in HeLa COX-1 Tet-Off cells. As to the kind of experiment: Western blot of COX-1, COX-2 and PGES expression after COX-1 induction. As to conditions: for effect on COX-1-mediated up-regulation of COX-2 expression / effect on COX-1-mediated up-regulation of PGES expression / effect on COX-1 overexpression: co-treatment of cells induced for 24, 48 and 72 hrs. From the text: (§1) The Tet-Off expression system we used was developed by Gossen and co-workers (38) to deliver doxycycline-regulated expression based on the high specificity of the Escherichia coli tet repressor-operator-doxycycline interaction. In the Tet-Off expression system each clonal cell line is used as its own control (cells cultured in the presence of DOX) and the overexpression of the integrated target gene is modulated solely by removing DOX from the culture medium. This eliminates the need for a control clonal cell line transfected with vector alone (as used with constitutive stable expression systems) thereby overcoming the inherent variation that arises from different sites of integration of DNA between different clones. HeLa Tet-Off cells containing the pTet-Off vector stably transfected and constitutively expressing the tetracycline-controlled transactivator tTA (composed of a fusion of the TetR and VP16 activation domain) were purchased from Clontech. The pBS(SK−)/PSHI cDNA containing the full length COX-1 gene (kindly supplied by Dr Stephen Prescott, University of Utah, Salt Lake City, Utah) was used as the template plasmid. The response plasmid pTRE2 (containing the minimal cytomegalovirus promoter containing Tet-operator sequences cloned upstream of the cDNA to be expressed) and the plasmid for antibiotic selection (pTK-hygromycin) for use with the Tet-Off system were purchased from Clontech. The COX-1 gene was excised from the template plasmid and ligated at the Bam H1 site of the pTRE2 vector. The orientation of the insert was verified by dideoxy DNA sequencing using the sequence specific primers: 5′-[…]-3′ (SEQ ID No 8) and 5′-[…]-3′ (SEQ ID No 9) (Clontech). Cells were plated in 12 well dishes in complete medium containing 10 μg/ml G418 per well and were allowed to attach and grow overnight. The pTRE2 vector containing the COX-1 gene (2 μg) was co-transfected with pTK-hygromycin (0.1 μg, which contains the hygromycin gene under control of the minimal thymidine kinase (TK) promoter) into the HeLa Tet-Off cell line at about 80% confluency using pfx-5 (Invitrogen, De Schelp, Netherlands) diluted in Optimem (Gibco). Cells were incubated for 4 hrs at 37° C. in 5% humidified CO2. Thereafter the medium was replaced with fresh complete medium containing no G418. Cells were allowed to grow for 72 hrs. Transfected cells were then seeded together with wild-type cells. Clones were selected against 200 μg/ml hygromycin in the presence of 1 μg/ml DOX. At least 50 hygromycin-resistant clones were picked using cloning cylinders. Clones were allowed to grow under continuous selection with hygromycin in the presence of DOX and then screened for the ability to express COX-1 in the presence and absence of DOX by immunoblot analysis. […] Unless otherwise stated, all clones were maintained uninduced in 1 μg/ml DOX, 200 μg/ml hygromycin and 100 μg/ml G418. COX-inhibition studies were conducted by growing cells in medium containing 3 μg/ml indomethacin or 10 μM NS-398.
(§2) Cells were seeded in 5 cm dishes and allowed to attach overnight. The following day, the cells were synchronised by incubating with serum-free medium for 24 hrs. Thereafter, the medium was replaced with fresh complete medium and the cells were grown in the presence or absence of DOX for 24, 48 and 72 hrs respectively. In parallel, cells were co-treated with indomethacin or NS-398. Cells were harvested by lysing in protein lysis buffer (150 mM NaCl, 10 mM Tris-HCl pH 7.4, 1 mM EDTA, 1% Triton X-100, 0.1% SDS). The protein content in the supernatant fraction was determined as described above. The clarified cell lysates (20 μg) were denatured and electrophoresed on 4-20% Tris-Glycine gels (NOVEX, Invitrogen).
(In general: A western blot detects proteins with antibodies after separation by electrophoresis.)

Data set [2] concerns bFGF, VEGF, Ang-1 and Ang-2 expression in HeLa COX-1 Tet-Off cells. As to the kind of experiment: Western blot of angiogenic factors after COX-1 overexpression. As to conditions: COX-1 overexpression up to 72 hrs.
Text: as §1, §2

Data set [3] has as its system COX-2, EP2 and EP4 expression in HeLa cells. As to the kind of experiment: Real-time RT-PCR of COX-2, EP2 and EP4 in HeLa cells treated with seminal plasma. As to conditions: HeLa cells co-treated with seminal plasma and inhibitor. On the procedure: In sexually active women growth and invasiveness of neoplastic cervical cells may be also under the direct influence of PGE present in seminal plasma. […] The expression of COX-2, EP2 and EP4, was measured by real-time RT-PCR.
(Real-time PCR tracks product formation cycle by cycle.)

Data set [4] has as its system EP2/EP4 receptors in cervical tissue. As to the kind of experiment: cAMP production in cervical tissues in response to exogenous PGE2 or forskolin. As to conditions: 300 nM PGE2 or 50 μM forskolin, 5 minutes, after overnight indomethacin. On the procedure: Cervical tissues (n=6 squamous carcinoma, n=1 adenocarcinoma and n=5 normal cervix) were sectioned finely, divided equally into three aliquots and incubated overnight in Dulbecco's Modified Eagle Medium (DMEM) (Sigma), containing 10% foetal calf serum, 0.3 mg/ml L-glutamine, 100 IU penicillin and 100 μg streptomycin and 3 μg/ml indomethacin. […] Tissue sections were harvested-by centrifugation at 2000 g. The supernatant was discarded and the tissue homogenised in 0.1 M HCl. cAMP concentration and protein concentrations were determined as mentioned above
On the technique in general: cAMP levels reflect the balance of adenylyl cyclase and phosphodiesterase activity.

Data set [5] concerns EP1 receptor in COX-1 Tet-Off HeLa cells. As to the kind of experiment: Inositol phosphate accumulation (EP1 receptor activity). As to conditions: induced expression of COX-1 and PGE2 stimulation; data not shown. From the text:
No significant difference in basal cAMP production was detected in uninduced and induced cells (FIG. 6). […] The activity of EP1 receptor was investigated by measuring inositol phosphate accumulation (41).

The subject of data set [6] is cAMP-dependent PGE2-receptors in HeLa cells. As to the kind of experiment: Real-time quantitative RT-PCR of PGE2 receptors after COX-1 overexpression. Particulars: cells grown in medium containing indomethacin. The text has this: The Tet-Off expression system we used was developed by Gossen and co-workers (38) to deliver doxycycline-regulated expression based on the high specificity of the Escherichia coli tet repressor-operator-doxycycline interaction. In the Tet-Off expression system each clonal cell line is used as its own control (cells cultured in the presence of DOX) and the overexpression of the integrated target gene is modulated solely by removing DOX from the culture medium. This eliminates the need for a control clonal cell line transfected with vector alone (as used with constitutive stable expression systems) thereby overcoming the inherent variation that arises from different sites of integration of DNA between different clones. HeLa Tet-Off cells containing the pTet-Off vector stably transfected and constitutively expressing the tetracycline-controlled transactivator tTA (composed of a fusion of the TetR and VP16 activation domain) were purchased from Clontech. The pBS(SK−)/PSHI cDNA containing the full length COX-1 gene (kindly supplied by Dr Stephen Prescott, University of Utah, Salt Lake City, Utah) was used as the template plasmid. […]

In data set [7] the test system is cAMP-linked PGE2 receptors in HeLa COX-1 Tet-Off cells. As to the kind of experiment: PGE2 stimulation and cAMP measurement in HeLa COX-1 Tet-Off cells. Particulars: cells grown in medium containing indomethacin, COX-1 induced 48 hrs.
Protocol: Cells (2×10^5) were plated in 6 well dishes containing 4 ml/well of complete medium containing DOX. Cells were allowed to attach overnight. The following day, the cells were synchronised by incubating with fresh medium containing no foetal bovine serum for 24 hrs. COX-1 Tet-Off cells were induced, by DOX withdrawal from the culture medium for 48 hrs at 37° C. in humidified 5% CO2 in the presence or absence of indomethacin. In parallel, control uninduced cells were supplemented daily with DOX. Thereafter the culture medium was removed and replaced with serum-free medium containing IBMX (Sigma) to a final concentration of 1 mM for 40 mins at 37° C. […] Following stimulation, the medium was removed and the cells lysed in 0.1M HCl. cAMP concentration was quantified by ELISA using a cAMP kit (Biomol, Affiniti, Exeter, UK) as per the manufacturer's protocol and normalised to protein concentration of the lysate. Protein concentrations were determined using protein assay kits (Bio-Rad).
In data set [8] the test system is cervical carcinoma tissue and normal cervix. As to the kind of experiment: Basal cAMP levels in cervical tissues cultured overnight.
Protocol: Determination of Basal CAMP levels in cervical tissues. Initially, basal cAMP levels were measured in cervical tissue (n=7 squamous cell carcinomas and n=5 normal cervix; FIG. 12A). Carcinoma and normal cervical tissues were obtained on the day of surgery/biopsy, sectioned finely and divided equally into three aliquots. The tissue was transported at 4° C. and then incubated in 35 mm tissue culture dishes containing 2 ml of Dulbecco's Modified Eagle Medium (DMEM) (Sigma), containing 10% foetal calf serum, 0.3 mg/ml L-glutamine, 100 IU penicillin and 100 μg streptomycin for 1.5 hours. One aliquot of tissue was snap frozen to determine basal cAMP concentration in the tissue at the time of collection. The other two aliquots were incubated overnight at 37° C. in humidified 5% CO2 in the presence or absence of 3 μg/ml indomethacin [a dual COX enzyme inhibitor (24, 32)]. Subsequently, tissue sections were harvested by centrifugation at 2000 g. The supernatant was discarded and the tissue homogenised in 0.1 M HCl. cAMP concentration was quantified by ELISA using a cAMP kit (Biomol; Affiniti, Exeter, UK) as per the manufacturer's protocol and normalised to protein concentration of the homogenate, Protein concentrations were determined using protein assay kits (Bio-Rad, Hemel Hempstead, UK).
[9] abbreviates: COX-1 induced 48 hrs with inhibitor (3 μg/ml indomethacin or 10 μM NS-398), induced without inhibitor 272.2±18.8 nM.
[10] abbreviates: COX-1 induced 72 hrs with inhibitor (3 μg/ml indomethacin or 10 μM NS-398), induced without inhibitor 537±22.5 nM.

Entries after “also recorded” stand apart in the source; their conditions may differ.

As for `CS(=O)(=O)Nc1ccc([N+](=O)[O-])cc1OC1CCCCC1` [NS-398], the “PGE2 levels in culture medium” value in the data set with HeLa COX-1 Tet-Off cells (setting [9]) is 132 ± 26.2 nM. The “PGE2 levels in culture medium” value in the data set on HeLa COX-1 Tet-Off cells (setting [10]) was determined as 268 ± 17 nM. In data set [1], the “effect on COX-1-mediated up-regulation of COX-2 expression” value is recorded as “No significant change; also recorded: Partial inhibition”, the “effect on COX-1-mediated up-regulation of PGES expression” value is reported as “Partial inhibition” and the “effect on COX-1 overexpression” value was “no alteration”. The “delay of induction of PGES by COX-1 overexpression” value in data set [1] (treatment of HeLa cells with NS-398) was 24 h. In [2], the “effect on COX-1 associated up-regulation of Ang-1” value (shortened to “effect … of Ang-1”) was “partially reduced; also recorded: partially inhibited”, the “effect on COX-1 associated up-regulation of Ang-2” value (shortened to “effect … of Ang-2”) is on record as “partially reduced; also recorded: partially inhibited”, the “effect on COX-1 associated up-regulation of VEGF” value (shortened to “effect … of VEGF”) is “partially reduced; also recorded: partially inhibited” and the “effect on COX-1 associated up-regulation of bFGF” value (from here on “effect … of bFGF”) is “partially reduced; also recorded: partially inhibited”. The “effect on seminal plasma up-regulation of EP2/EP4 receptor expression” value (“effect on seminal plasma up-regulation” for short) in data set [3] was “partially abolished”.

Turning to `C=C[C@@]1(C)CC(=O)[C@]2(O)[C@@]3(C)[C@@H](O)CCC(C)(C)[C@@H]3[C@H](O)[C@H](OC(C)=O)[C@@]2(C)O1` [forskolin], in [4], the “fold induction of cAMP generation in cancer tissue” value was 55.3±15.84 fold and the “fold induction of cAMP generation in normal cervix” value came to 9.18±1.59 fold.

In the case of `CCCCC[C@H](O)/C=C/[C@H]1[C@H](O)CC(=O)[C@@H]1C/C=C\CCCC(=O)O` [PGE2, prostaglandin E2], in data set [5], the inositol phosphate accumulation result is given as “No inositol phosphate accumulation above basal”.

As for `O=S(=O)(NCCNC/C=C/c1ccc(Br)cc1)c1cccc2cnccc12` [H-89], the “effect on seminal plasma up-regulation” value in data set [3] is “partially abolished”.

Regarding `COc1ccc2c(c1)c(CC(=O)O)c(C)n2C(=O)c1ccc(Cl)cc1` [indomethacin], the “PGE2 levels in culture medium” value in the data set on HeLa COX-1 Tet-Off cells (setting [9]) is 62 ± 7 nM. Further, the “PGE2 levels in culture medium” value with HeLa COX-1 Tet-Off cells (setting [10]) was 76 ± 10.7 nM. In addition, in data set [1], the “effect on COX-1-mediated up-regulation of COX-2 expression” value is listed as “inhibited; also recorded: abolished”, the “effect on COX-1-mediated up-regulation of PGES expression” value was “inhibited; also recorded: abolished” and the “effect on COX-1 overexpression” value was “no alteration”. In data set [2], the “effect … of Ang-1” value was “abolished”, the “effect … of Ang-2” value was “abolished” and the “effect … of bFGF” value is “abolished”. For the same molecule, in data set [2] (listed as Indomethacin), the “effect … of Ang-1” value is on record as “inhibited”, the “effect … of Ang-2” value is “inhibited”, the “effect … of VEGF” value is given as “inhibited” and the “effect … of bFGF” value was “inhibited”. In addition, in data set [2] (listed as indormethacin), the “effect … of VEGF” value is “abolished”. The “effect on up-regulation of the cAMP-dependent PGE2-receptors by COX-1 overexpression” value in data set [6] is “inhibited”. Besides, in [7], the “effect on elevated cAMP production in COX-1 overexpressing cells in response to PGE2” value is listed as “abolished”. Moreover, in data set [8] (overnight culture in presence of indomethacin, without indomethacin 64.2±5.1), the “cAMP concentration in carcinoma tissue” value is listed as 2.59±0.64 pmol cAMP/mg protein. Further, in [8] (overnight incubation in presence of indomethacin, without indomethacin 11.96±1.35), the “cAMP concentration in normal cervical tissue” value was 4.0±0.7 pmol cAMP/mg protein. In addition, in [3], the “effect on seminal plasma up-regulation” value is “abolished”.

The values above are taken from patent US20030220266A1, “Method of treating a disease” (priority 2001, published 2003).
